Measured values taken from US7511123B2, “Immuno-interactive fragments of the alpha-C subunit of inhibin” (Prince Henry's Institute of Medical Research, priority 1999, dated 2009).

Key:
R1 = assay: Solid phase binding of Set 2 peptides to R1; set-up: species or system mouse; key: +++; ΦΦΦ strong effect; +, Φ weak effect; settings: Set 2 biotinylated peptides 24 micromoles/L
Method: (§1) The binding of the 41 biotinylated peptides as set forth in Table 7 (peptide set 2) to the mouse monoclonal antibodies (PO# series) was assessed as follows:
(§2) a) Assay 1 (solid phase assay). The assay was undertaken as outlined in assay 1 of Example 2. Biotinylated peptides (24 micromoles/L) were initially bound to streptavidin-coated plates. Mab (at an appropriate dilution to give a detectable response, 1:1000, 1:10000 dilution of the culture medium) was then added and incubated for 1.5 hr. The amount of bound Mab was determined using horseradish peroxidase-bound anti-mouse IgG serum and enzyme activity detected at 450-630 nm using an ELISA plate reader.

As #128 = assay: Two-site assay design: peptides pre-incubated with As #128 coated plate; assay type: binding, sheep; settings: non-biotinylated peptides 0.1-1 micromolar
Method: On the other hand, the IFMA design is based on the total amount of inhibin bound which is a combination of both antibody affinity and concentration. In order to establish to what extent epitopes to these peptides contribute to the overall IFMA, the following two-site assay designs were used.
(i) Peptides #5, #20 and #30 (0, 0.1-1 micromolar) were incubated with the As #128 coated plate for 1.5 hours at RT and the wells washed. The highest dose of peptide used was saturating.
(ii) Hr-Inhibin was then added as a saturating or near saturating dose to the As #128 coated plate and incubated for 2 hours at room temperature and the plate washed.
(iii) Biotinylated As #41 was added to the above wells and incubated for 2 hours at RT. Plates were then washed and counted.

As#41 = assay: Sandwich assay with As#41 as both coating and labeled antibody, no inhibin; assay type: binding, sheep; settings: peptide added to both coating and labeled As#41
Excerpt: It has not been established if the same antibodies are present in As #128.

As #41 [1] = assay: Two-site assay design variation: biotinylated #41 pre-incubated with peptide; assay type: binding, sheep; settings: non-biotinylated peptides 0.1-1.0 micromolar
Method: (iv) In a variation to the above design, biotinylated #41 was pre-incubated with peptide (0.1-1.0 micromolar) for 1.5 hours at room temperature and then added to the As #128 coated plate pre-bound with inhibin as for (i)-(iii). […] Combination of peptide #5 and #30 led to 74% decrease.

As #41 [2] = assay: RIA (Assay 2): competition with iodinated inhibin for As #41; assay type: binding, sheep
Method in brief: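 Graded doses of peptide or hr-inhibin standard competed with iodinated human recombinant 30 kDa inhibin tracer for the sheep antiserum at a set dilution, overnight at 4°C. Bound tracer was precipitated with goat anti-sheep IgG and gamma-counted. ED50 is the dose producing 50% loss of tracer binding.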

PO-6 = assay: Solid phase binding of Set 2 peptides to PO-6; set-up: species or system mouse; key: +++; ΦΦΦ strong effect; +, Φ weak effect; settings: Set 2 biotinylated peptides 24 micromoles/L
Method: as §1, §2

Substance: SGSG WSPSALRLLQRPPE [Peptide 5]
- R1 SPB (R1): +
- suppression in binding with As #128 (As #128): 65%
- binding in the absence of inhibin (As#41): significant binding
- inhibition with biotinylated #41 pre-incubated with peptide (As #41 [1]): 50%
- As#41 ED50 (As #41 [2]; biotinylated peptides, 50% fall in binding of iodinated inhibin): 15 pM
- cross-reaction with hr-inhibin for As #41 in RIA (As #41 [2]; in words): cross-reacted strongly
- ED50 values As#41 (As #41 [2]; non-biotinylated peptides, hr-inhibin A as standard): 400 pM
- PO-6 SPB (PO-6): +++
